In patent US8653091B2, “Pyrid-2yl fused heterocyclic compounds, and compositions and uses thereof” (Evotec AG, priority 2007, dated 2014):

Legend:
P2X3 = P2X3 (Homo sapiens (Human), UniProt P56373); experiment: Calcium uptake assay (P2X antagonist assay), P2X3; format: cell-based; details: inhibition of agonist-induced calcium influx
Source text: (§1) Human P2X3 (Accession no. NM_002559), P2X2 (Accession no. NM_170682) and Rat P2X3 (Accession no. NM_031075) and P2X2 (Accession no. NM_053656) are cloned into a mammalian expression vector (e.g., pcDNA5/TO or pcDNA3 Invitrogen). The human P2X2/3 chimera clone is created as described by Neelands et al, and then cloned into an expression vector as above. Receptors are expressed in cells (e.g., HEK293 or 1321N1 (obtained from the ECACC)) via transient transfection using standard lipid mediated transfection, or by creation of stable transfectants for each receptor. For expression of the P2X2/3 heteromeric receptor, the P2X3 expression vector is stably transfected into a cell line already stably expressing P2X2. P2X2/3 heteromer function is isolated using pharmacological methods. Cell lines are maintained in DMEM+5% Glutamax, the appropriate level of selective antibiotic, and 10% heat inactivated FBS.
(§2) Functional activity of compounds at the P2X receptor is determined by measuring their ability to inhibit agonist-induced calcium influx. Compounds are tested for antagonist activity against the P2X2/3 chimera, the P2X3 homomer, or the P2X2/3 heteromer. At the start of each screening day, the agonist EC50 is determined. Compound % inhibition or IC50s are subsequently determined using a pre-determined agonist concentration (EC50-90 depending on cell line) as a stimulus. The agonists used are αβMeATP, ATP, or other ATP analogs. Compounds may be tested at concentrations ranging from 1 μM to 10 μM.
(§3) To test for antagonist activity, cells expressing the appropriate receptor are seeded onto 96 or 384 well plates 18-24 hours prior to assay. On the day of the assay, cells are loaded with calcium-sensitive fluorescent dye (e.g., Fluo-4 no wash reagent-Invitrogen cat#F36206, or the BD™ PBX Calcium Assay Kit—BD cat#640175) in Hank's Buffered Salt Solution (HESS) with up to 10 mM supplemental CaCl2. Plates are incubated at 37° C. and then equilibrated at room temperature. Antagonism of agonist-induced calcium influx is measured using a fluorescent imaging plate reader (e.g. FLIPR^TETRA, Molecular Devices, Sunnyvale, Calif.). The assay comprises two stages: a pre-treatment phase followed by a treatment phase. Compounds may be tested as follows: For the pre-treatment phase, 50 μL of 3× concentration of test compound in HBSS is added to cells containing 100 μL of dye loading media to achieve a final concentration of 1× test compound. For the treatment phase, at a set interval after pre-treatment (1-30 minutes), 50 μL of 1× test compound plus […] solution is added, resulting in a final concentration of 1× compound and 1× agonist. Fluorescence is measured at 0.1-3 second intervals—with an excitation wavelength of 494 nm and an emission wavelength of 515 nm. Responses are measured as (peak fluorescence after agonist addition) minus (baseline fluorescence prior to treatment). Percent inhibition is calculated as follows: […]
(§4) IC50 values are determined by analyzing dose response data in a 4 parameter logistic fit using GraphPad Prizm.

P2X2/3 = P2X2/3 (Homo sapiens (Human), UniProt P56373+Q9UBL9); experiment: Calcium uptake assay (P2X antagonist assay), P2X2/3; format: cell-based; details: inhibition of agonist-induced calcium influx
Chain of P2X2/3 (Q9UBL9 whole entry): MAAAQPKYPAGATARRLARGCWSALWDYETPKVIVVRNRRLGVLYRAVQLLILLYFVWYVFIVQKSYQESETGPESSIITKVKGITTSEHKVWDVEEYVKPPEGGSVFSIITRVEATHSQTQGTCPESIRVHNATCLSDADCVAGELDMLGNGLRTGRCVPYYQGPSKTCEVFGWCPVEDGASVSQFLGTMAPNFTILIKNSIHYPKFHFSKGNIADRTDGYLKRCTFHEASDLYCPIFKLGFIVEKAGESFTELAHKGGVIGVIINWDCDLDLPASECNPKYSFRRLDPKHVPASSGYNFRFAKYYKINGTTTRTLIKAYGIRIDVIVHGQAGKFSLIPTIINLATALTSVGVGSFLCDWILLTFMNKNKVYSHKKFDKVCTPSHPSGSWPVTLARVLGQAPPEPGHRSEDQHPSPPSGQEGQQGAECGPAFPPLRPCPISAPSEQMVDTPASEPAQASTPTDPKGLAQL
Chain of P2X2/3 (P56373 whole entry): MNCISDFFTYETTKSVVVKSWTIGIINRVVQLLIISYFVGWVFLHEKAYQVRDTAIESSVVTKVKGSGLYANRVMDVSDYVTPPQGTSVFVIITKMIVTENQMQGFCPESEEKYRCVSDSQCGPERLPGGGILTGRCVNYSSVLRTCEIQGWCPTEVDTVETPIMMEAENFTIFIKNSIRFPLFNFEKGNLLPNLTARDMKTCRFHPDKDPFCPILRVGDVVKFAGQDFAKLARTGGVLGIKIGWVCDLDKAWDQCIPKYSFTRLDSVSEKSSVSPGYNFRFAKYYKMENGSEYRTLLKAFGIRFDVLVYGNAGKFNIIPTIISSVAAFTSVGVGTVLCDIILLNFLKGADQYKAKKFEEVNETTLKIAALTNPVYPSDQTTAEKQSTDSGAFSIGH
Source text: as §1, §2, §3, §4

Chain of P2X3 (P56373 whole entry): as above

Structure (SMILES)	IC50 (P2X3)	IC50 (P2X2/3)
COc1ccc([C@@H](CCO)Nc2ncnc3c2CN(c2ccc(C)cn2)CC3)cn1 [Compound 58, (R)-3-(6-Methoxy-pyridin-3-yl)-3-[6-(5-methyl-pyridin-2-yl)-5,6,7,8-tetrahydro-pyrido[4,3-d]pyrimidin-4-ylamino]-propan-1-ol]	0.029 µM	0.083 µM
Cc1ccc(N2CCc3ncnc(NC(C)c4ccc(Cl)c(F)c4)c3C2)nc1 (stereo not drawn) [Compound 39, [1-(4-Chloro-3-fluoro-phenyl)-ethyl]-[6-(5-methyl-pyridin-2-yl)-5,6,7,8-tetrahydro-pyrido[4,3-d]pyrimidin-4-yl]-amine]	0.043 µM	1.42 µM
Cc1ccc(N2CCc3ncnc(N[C@H](C)c4ccccc4)c3C2)nc1 [Compound 8, [6-(5-Methyl-pyridin-2-yl)-5,6,7,8-tetrahydro-pyrido[4,3-d]pyrimidin-4-yl]-((R)-1-phenyl-ethyl)-amine]	0.073 µM	2.54 µM
Cc1ccc(N2CCc3ncnc(NC(C)c4cccnc4)c3C2)nc1 (stereo not drawn) [Compound 11, [6-(5-Methyl-pyridin-2-yl)-5,6,7,8-tetrahydro-pyrido[4,3-d]pyrimidin-4-yl]-(1-pyridin-3-yl-ethyl)-amine]	0.063 µM	2.74 µM
COc1cccc([C@@H](C)Nc2ncnc3c2CN(c2ccc(C)cn2)CC3)c1 [Compound 47, [(R)-1-(3-Methoxy-phenyl)-ethyl]-[6-(5-methyl-pyridin-2-yl)-5,6,7,8-tetrahydro-pyrido[4,3-d]pyrimidin-4-yl]-amine]	0.021 µM	0.705 µM
Cc1ccc(N2CCc3ncnc(NC(C)c4cc(F)cc(F)c4)c3C2)nc1 (stereo not drawn) [Compound 17, [1-(3,5-Difluoro-phenyl)-ethyl]-[6-(5-methyl-pyridin-2-yl)-5,6,7,8-tetrahydro-pyrido[4,3-d]pyrimidin-4-yl]-amine]	0.052 µM	0.803 µM
